Assay results reported in ChEMBL document CHEMBL1158946, “Sesquiterpenoids from Brachylaena hutchinsii” (1991).
Values after ≈ are worked out from the molar mass of the structure shown.

Assays:
[1] = system: Corynebacterium ammoniagenes; assay: Antimicrobial activity against Brevibacterium ammoniagenes ATCC 6872 after 48 hrs by twofold serial broth dilution method; type: functional; details: ATCC 6872, 48 h
[2] = system: Streptococcus mutans; assay: Antimicrobial activity against Streptococcus mutans ATCC 25175 after 48 hrs by twofold serial broth dilution method; type: functional; details: ATCC 25175, 48 h

SMILES | MIC [1] | MIC [2]
CC(C)[C@H]1C(=O)CC2(C)C3C(C=O)=CC[C@@H]2[C@H]31 | 800 µg/mL (≈ 3.44 mM) | 800 µg/mL (≈ 3.44 mM)
CC(C)[C@H]1C(=O)C[C@@]2(C)[C@@H]3C(CO)=CC[C@H]2[C@H]13 | > 800 µg/mL | > 800 µg/mL
CC(C)[C@@H]1C(=O)CC2(C)C3C(CO)=CC[C@@H]2[C@H]31 | > 800 µg/mL | > 800 µg/mL
CC(C)[C@@H]1C(=O)CC2(C)C3C(C=O)=CC[C@@H]2[C@H]31 | 800 µg/mL (≈ 3.44 mM) | 800 µg/mL (≈ 3.44 mM)
CC(C)[C@@H]1CCC2(C)C3C(CO)=CC[C@@H]2[C@H]31 [YLANGENOL] | 25 µg/mL (≈ 0.113 mM) | 25 µg/mL (≈ 0.113 mM)
